Data taken from PubChem BioAssay AID449762 (Southern Research Specialized Biocontainment Screening …, 2010).
Results filed as inconclusive are left out.

Test system: M. tuberculosis H37Rv growth inhibition, 7H9 media
Assay: M. tuberculosis growth inhibition, HTS (AID 449762);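 further: bacterial growth assessed after seven days of incubation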
Conditions: for IC90: measured here: IC90 growth inhibition

Row | SMILES | IC50 | IC90
1 | N#Cc1c(-c2ccccc2)c(-c2ccccc2)nn(CC(=O)NNC(=O)Nc2ccc(Cl)c(Cl)c2)c1=O | 49.2 µM | 55.5 µM
2 | Cn1cnnc1SCc1ccc(C(=O)N=Nc2c(O)n(Cc3ccc(Cl)cc3)c3ccccc23)cc1 | 2.97 µM | 3.4 µM
3 | COc1cc(/C=N/NC(=O)COc2ccc(C)cc2)ccc1OC(=O)c1cccs1 | 18.1 µM | 30.2 µM
4 | Nc1ccc(-c2nc3ccc(-c4nc5ccccc5o4)cc3[nH]2)cc1 | 31.4 µM | 41.6 µM
5 | CC1(C)Cc2ccccc2C2=NNC(=O)C2=N1 | 11.2 µM | 21 µM
6 | CN(Cc1ccco1)c1ncnc2ccc(-c3ccc4c(ccn4C)c3)cc12 | 16.9 µM | 44.9 µM
7 | Cc1ccc(S(=O)(=O)/N=C(\CCl)N2CCOCC2)cc1 | 6.44 µM | 14.9 µM
8 | Cc1cc(Nc2ccccc2)c2c([N+](=O)[O-])ccc(C)c2n1 | 94.4 µM | > 100 µM
9 | CC(C)=CCOc1ccc([C@@H]2COc3c(ccc4c3C=CC(C)(C)O4)C2)c(O)c1 | 4.75 µM | 7.77 µM
10 | Cc1c(Cl)ccc2c1NC(=O)[C@]21N[C@@H](Cc2ccccc2)[C@H]2C(=O)N(c3ccc(F)cc3)C(=O)[C@H]21 | 23 µM | 26.1 µM
11 | CC1CN(c2ccc([N+](=O)[O-])c(NCCOc3ccc(Cl)cc3)c2)CC(C)N1 (stereo unspecified) | 9.19 µM | 12.8 µM
12 | Cc1ccc(C(=O)C[n+]2cc(-c3ccc(C)cc3)n3c2CCCCC3)cc1 | 15.3 µM | 19.8 µM
13 | O=C(NCCC1=CCCCC1)c1c(O)nc2sccn2c1=O | 72.8 µM | > 100 µM
14 | Fc1ccc(C[n+]2c(-c3ccccc3)cc(-c3ccccc3)cc2-c2ccccc2)cc1 | 32.3 µM | 44.3 µM
15 | Cc1cccc(C)c1Nc1c(-c2ccccn2)nc2ccccn12 | 2.18 µM | 5.73 µM
16 | Cc1ccc(Cn2c(C(CO)Nc3nc(-c4ccc(F)cc4)cs3)nc3ccccc32)cc1 (stereo unspecified) | 42.1 µM | 60.2 µM
17 | CCOc1ccc(-c2cc(C)[n+](CCc3ccc(OC)c(OC)c3)c(-c3ccc(OCC)cc3)c2)cc1 | 0.92 µM | 1.8 µM
18 | COc1cccc(-n2nnc3c(=O)n(CC(=O)N4CCC(Cc5ccccc5)CC4)cnc32)c1 | 23.2 µM | 36.7 µM
19 | CCCOc1ccc(N2CC(C(=O)Nc3ccccn3)CC2=O)cc1 (stereo unspecified) | 16.3 µM | 59.1 µM
20 | Cc1ccc(C(=O)Sc2cccccc2=O)cc1 | 0.96 µM | 2.48 µM
21 | CCc1cc2c(=O)n(C(C)C(=O)OC3CCCCC3)cnc2s1 (stereo unspecified) | 17.8 µM | 27.8 µM
22 | Cn1cc(NC(=O)CCl)cn1 | 4.36 µM | 8.63 µM

Row | SMILES | IC50 | IC90
23 | Cc1ccc(C)c(C2C(=O)c3ccccc3C2=O)c1 | 3.94 µM | 16.3 µM
24 | CCc1ccc(NC(=S)/N=C(\N)Nc2nc(C)c3cc(CC)ccc3n2)cc1 | 7.31 µM | 40 µM
25 | O=C(Nc1ccc(N2CCN(C(=O)c3ccco3)CC2)cc1)C(c1ccccc1)c1ccccc1 | 12.1 µM | 22.6 µM
26 | O=C1CCc2ccc(OCCCCN3CCN(c4cccc(Cl)c4Cl)CC3)cc2N1 | 13.1 µM | > 100 µM
27 | Nc1n[nH]c(C2CC2)c1N=Nc1ccc(Cl)cc1 | 19.3 µM | 41 µM
28 | O=C(Nc1cccc(-c2nc3ccccc3s2)c1)c1cc(-n2cnnc2)ccc1Cl | 11.6 µM | 13.1 µM
29 | CSc1ccccc1OCc1cc(C(=O)N2CCC(Oc3cccnc3)CC2)no1 | 24 µM | 27.6 µM
30 | C=CCc1c(C)nc(C)nc1N/N=C/c1ccccc1O | 2.25 µM | 4.08 µM
31 | O=C(Nc1ccc([N+](=O)[O-])cc1)Nc1ccc(OC(F)F)c(Cl)c1 | 2.83 µM | 4.03 µM
32 | CC(=O)OCC1O[C@@H](O[C@@H]2C[C@H]3C(C)(C)[C@H](OC(C)=O)CC[C@]3(C)[C@H]3CC[C@]45C[C@]4(CC[C@H]5[C@@H](C)C[C@@H](O)[C@H](O)C(C)(C)O)[C@@]32C)[C@H](O)[C@@H](O)[C@@H]1O (stereo partly specified) | 30.7 µM | 39.6 µM
33 | COc1ccc(C(=O)OCCNC(=O)c2c(Cl)nc3ccccn23)cc1 | 10 µM | 16.1 µM
34 | C(=N\Nc1ccc2ccccc2n1)/c1ccc2c(c1)OCCO2 | 2.77 µM | 4.03 µM
35 | CC(C)(C)c1ccc(-c2nc(-c3ccncc3)no2)cc1 | 9.16 µM | 33.6 µM
36 | Cn1ccnc1C(=O)C1CCCN(Cc2cn[nH]c2-c2ccc(-c3ccccc3)cc2)C1 (stereo unspecified) | 76 µM | 91.7 µM
37 | COc1ccc(-c2nnc3sc(C4CCCCC4)nn23)cc1OC | 36.2 µM | 55.3 µM
38 | CCOC(=O)C1CCN(c2cc3c(cc2NC(=O)c2ccccc2Cl)n(C)c(=O)n3C)CC1 | 46.6 µM | 53.9 µM
39 | COC(=O)C(C)Oc1ccc2c(c1)O/C(=C\c1ccco1)C2=O (stereo unspecified) | 5.58 µM | 16 µM
40 | Cc1ccc(S(=O)(=O)NC(CC(C)C)C(=O)N2CCN(C/C=C/c3ccccc3)CC2)cc1 (stereo unspecified) | 46.8 µM | 52.7 µM
41 | Cc1c(OCc2ccccc2)c(=O)ccn1Cc1ccc(Cl)cc1 | 39.4 µM | 60.1 µM
42 | O=C(NCCc1ccc(Cl)cc1)c1ccc(CS(=O)Cc2ccc(Cl)cc2)o1 (stereo unspecified) | 37.7 µM | 49.1 µM
43 | Cc1ccc2ccc3ccc(C)nc3c2n1 | 0.49 µM | 1.31 µM
44 | CCOc1ccc(-c2cnc(NCc3cccc4ccccc34)n2CCOC)cc1 | 5.56 µM | 8.14 µM

Row | SMILES | IC50 | IC90
45 | CC(=O)c1ccc(Sc2nnnn2-c2ccccc2)c([N+](=O)[O-])c1 | 4.48 µM | 13.3 µM
46 | CCOc1ccc(NCc2cccn2-c2nnc(N3CCC(C(=O)NCCCN4C(C)CCCC4C)CC3)s2)cc1 (stereo unspecified) | 71.9 µM | 90.9 µM
47 | CCOc1ccc(N(C(=O)/C=C/C(=O)Nc2cc(C)on2)C(C(=O)NC2CCCC2)c2ccccc2C)cc1 (stereo unspecified) | 65.9 µM | > 100 µM
48 | Cc1ccc(NC(=O)c2sccc2-n2cccc2)c(C)c1 | 28.2 µM | 82.9 µM
49 | CCOC(=O)CNc1ccc(C(=O)OCC)cc1[N+](=O)[O-] | 8.45 µM | 22.6 µM
50 | c1ccc2sc(Sc3ncnc4sccc34)nc2c1 | 3.36 µM | 6.95 µM
51 | O=C(OCCN1C(=O)c2ccccc2C1=O)c1cc2ccccc2o1 | 12.2 µM | > 25 µM
52 | Cc1ccc(-n2c(Cl)c(Cl)nc(Cl)c2=O)cc1 | 5.97 µM | 18.3 µM
53 | O=c1c2c(-c3ccccc3)csc2ncn1/N=C/c1ccc(O)c([N+](=O)[O-])c1 | 13.5 µM | 52.9 µM
54 | O=[N+]([O-])c1cccnc1N1CCC(c2cc(-c3cccc(C(F)(F)F)c3)n[nH]2)CC1 | 23.1 µM | 26.1 µM
55 | COC(=O)C1C(O)C(C)C(O)C(C)/C=C\C=C(/C)C(=O)Nc2c(C)c(OC(C)=O)c3c(c2O)C(=O)C(C)=C2OCOC(=C23)/C(C)=C/C(C)(O)C(O)C(C)C1O (stereo unspecified) | < 0.2 µM | < 0.2 µM
56 | Cc1ccc(C(=O)Nc2cccc(C(F)(F)F)c2)cc1Nc1ncnc2nc[nH]c12 | 50 µM | > 100 µM
57 | Cc1ccc(NC(=O)CNCc2cccs2)cc1Br | 99.6 µM | > 100 µM
58 | CCc1nc2ccccc2c(C(=O)Nc2cc(C)ccc2C)c1C | 13 µM | > 100 µM
59 | O=[N+]([O-])c1ccc(C2CC(c3ccccc3)=Nc3ccccc3S2)cc1 (stereo unspecified) | 5.11 µM | 6.66 µM
60 | C=CCNC(=O)c1onc(CCl)c1C(=O)OC | 1.66 µM | 5.93 µM
61 | CCc1ccc(NC(=O)CSc2nc3n[nH]c(C)c3c(=N)n2-c2cccc(OC)c2)cc1 | 13.2 µM | 37.1 µM
62 | COc1ccc(NC(=O)CSc2nnc(-c3ccccn3)n2N)cc1Cl | 18.1 µM | > 100 µM
63 | O=C(c1ccc(Cl)cc1)N1N=C(c2ccccn2)CC1(O)C(F)(F)F (stereo unspecified) | 2.21 µM | > 100 µM
64 | Cc1ccnc(Sc2ccc([N+](=O)[O-])cc2[N+](=O)[O-])n1 | 7.7 µM | 15.1 µM
65 | CN1C2CCC1/C(=C/c1ccccn1)C(=O)/C2=C\c1ccccn1 | 16.4 µM | 25.8 µM
66 | Cc1cc(Nc2cc(Cl)nc(Sc3ccc(NC(=O)C4CC4)cc3)n2)n[nH]1 | 26.2 µM | 45.1 µM

Row | SMILES | IC50 | IC90
67 | CC1CCCC/C1=N\NC(=S)NCCc1ccccc1 (stereo unspecified) | 21.9 µM | 24.6 µM
68 | CCCOc1ccc2c(c1)C(=NN=C(N)N)c1cc(OCCC)ccc1-2 | 12.4 µM | 13.1 µM
69 | CCc1ccc(-c2nn(-c3ccccc3)cc2CSC(=N)N)cc1 | 17.5 µM | 22.4 µM
70 | CN1C(=O)N(C)c2ccc(C=O)c3cccc1c23 | 41 µM | 57.2 µM
71 | Cc1nc([N+](=O)[O-])c(Br)n1CC(=O)c1ccc2ccccc2c1 | 2.15 µM | 11.9 µM
72 | CCCCCCCNC1=CC(=O)CC(c2ccccc2)C1 (stereo unspecified) | 41.6 µM | 53.9 µM
73 | CCOC(=O)c1ccc(NC(=S)NCCc2ccc(F)cc2)cc1 | 42.4 µM | > 100 µM
74 | Cc1c(Cl)cccc1NC(=O)CN1CCC(C(O)(c2ccccc2)c2ccccc2)CC1 | 36.1 µM | > 100 µM
75 | C[n+]1c(-c2ccccc2)cc(CCCCc2cc(-c3ccccc3)[n+](C)c(-c3ccccc3)c2)cc1-c1ccccc1 | 17.3 µM | 21.7 µM
76 | COC(=O)C1=C(C)N(Cc2ccccc2)C(=NCc2cccc(Cl)c2)N[C@H]1c1ccccc1 | 16.5 µM | 21 µM
77 | CC(=O)n1cc(N(C(=O)CCl)c2ccc(Cl)cc2)c2ccccc21 | 1.82 µM | 3.99 µM
78 | CCOC(=O)c1c(/N=C/N(C)C)sc(/C=N/Nc2ccccc2)c1-c1ccccc1Cl | 81.8 µM | > 100 µM
79 | CCOc1ccc(OCCSc2ccc(S(=O)(=O)N3CCN(C)CC3)cn2)cc1 | 22.1 µM | 28.6 µM
80 | CC(C)OC(=O)CCCCCN1C(=O)CSC1=S | 3.5 µM | 8.17 µM
81 | COc1ccc(NC(=O)/C(Cl)=C(/Cl)S(=O)Cc2ccc(C)cc2)cn1 (stereo unspecified) | < 0.2 µM | < 0.2 µM
82 | C/C(=C\C(=O)c1ccccc1)Nc1ccc(Cl)c(Br)c1 |  | > 100 µM
83 | CN(C)C1(CNC(=O)Nc2ccc(Cl)c(Cl)c2)CCCCC1 | 11.2 µM | 12.5 µM
84 | CC(C)(C)OC(=O)NNc1c2ccccc2nc2ccccc12 | 22.8 µM | 25.7 µM
85 | c1ccc(-c2nc3c(ccc4ccccc43)[nH]2)nc1 | 6.75 µM | 20.3 µM
86 | Cc1ccc(C(=O)c2oc3ccc(Cl)cc3c2NC(=O)CN2CCN(C)CC2)cc1 | 14.6 µM | 17.8 µM
